Literature values as cited in patent US5935604A (Danbiosyst UK Limited, priority 1993, dated 1999).

Assays:
[1] = test system: heart
[2] = man, single doses of 1 mg
[3] = in vivo
[4] = nasal

Cc1ncccc1C1CCCN1C (stereo not shown) [2-methyl nicotine]
side-effects on the heart [1]: reduced side-effects on the heart

CN1CCCC1c1cccnc1 (stereo not shown) [nicotine]
nicotine peak plasma levels (regular smokers of 15 or more cigarettes per day, daytime average): about 35 μg/l
dose of systemically available nicotine absorbed per cigarette (regular smokers, average): about 1 mg
interval between taking a puff and nicotine arriving in the brain (smoking a cigarette): 10 to 20 s
plasma nicotine level (two minutes after the first cigarette, 2 min): about 13 μg/l
rate of absorption ([2]; nasal): fast
time to maximum concentration ([2]; nasal): ≤ 10 min
differences for different nasal treatments [2]: No differences could be found
potential side effects [3]: sleep disturbances and nightmares can result

Gentamicin
absorption with bioadhesive microsphere system [4]: increase the absorption
